Read-outs that look alike come from different tables or passages of the source.

Data set [1] concerns human neutrophils. Put plainly: In vitro respiratory burst (superoxide) assay. The data set is classed as cell-based. Particulars: Neutrophil, concentration required to reduce superoxide production to 50% of control, PMA-triggered respiratory burst, WST-1 dye reduction, compound 30 min before, read-out: Al50 (the source's name). The protocol:
Human neutrophils were isolated from anti-coagulated whole human blood using a Polymorphprep (density 1.13 g/mL, centrifuge 500×g, 40 min). Neutrophils were washed with PBS and plated out at 2×10^6 neutrophils per mL.
Neutrophils were treated with the compound (in DMSO) 30 minutes prior to addition of the detection dye WST-1 (5.5 mM). The respiratory burst was triggered by addition of PMA (200 ng/mL) and dye reduction was monitored (OD 450) for 25 minutes at 37° C.
Respiratory burst activity was calculated as the rate of dye reduction over time and was normalised to untreated cell controls. Anti-inflammatory activity is reported in Table 2 as the concentration required to reduce superoxide production to 50% of control, Al50.
For orientation: Tetrazolium assays rely on reduction of a dye to a coloured formazan, in cell work by metabolically active cells.

Data set [2] has as its system neutrophils in the peritoneal wash. Put plainly: Mouse gout model (monosodium urate crystal-induced murine peritonitis). Type of data set: in vivo. Particulars: Neutrophil, oral, immediately prior to MSU crystals i.p. The protocol:
Mouse Peritionitis was induced by intraperitoneal injection of 1 to 5 mg monosodium urate (MSU) crystals, in […] PBS (0.1M, pH 7.4). Animals were treated with the compound(s) (in 250 μL PBS orally) at the doses indicated immediately prior to administration of the MSU crystals. 4 hours post administration, animals were euthanased by CO2 exposure. The peritoneal cavity was washed with 3 mL of PBS containing 3 mM EDTA and 25 U/mL of heparin. The total cells in the lavage fluid were counted and an appropriate volume retained for H and E staining for differential counting (Getting et al. Molecular Determinants of Monosodium Urate Crystal—induced Murine Peritonitis: A role for Endogenous Mast Cells and a Distinct Requirement for Endothelial-derived Selectins. J. Pharmacology and Experimental Therapeutics 1997, 283: 123-30).
Treatment groups were as follows:
Untreated Control (Naive)
PBS Control (PBS oral+MSU crystals)
Compound(s),(oral)+MSU crystals

For data set [3], the system named is rat glioma cells. To be noted: in vitro; cited from earlier work.
In data set [4] the test system is lymphocytic leukemia cells. Particulars: in vitro; cited from earlier work.
Setting [5] is: peritoneal wash 4 hours post, total neutrophils per mL, read-out: % suppression Neutrophil infiltration.
The mark [6] stands for this setting: superoxide activity of neutrophils in peritoneal wash 4 hours post, read-out: % suppression Superoxide production.

Turning to `O=C(O)c1ccc2c(n1)C(=O)C1=C(C2=O)S(=O)(=O)CCN1` [Compound 1, 2H-Pyrido[2,3-g][1,4]benzothiazine-5,10-dione, 3,4-dihydr-1,1-dioxo-7-carboxylic acid], the IC50 in data set [1] was found to be 0.14 µM. Same read-out and setting: as for `CCCCCCCCOC(=O)c1ccc2c(n1)C(=O)C1=C(C2=O)S(=O)(=O)CCN1` [Compound 4, Octyl-2H-pyrido[2,3-g][1,4]benzothiazine-5,10-dione, 3,4-dihydro-1,1-dioxo-7-carboxylate], the figure is 9.04 µM. Same read-out and setting: as for `O=C(O)c1ccc2c(n1)C(=O)C1=C(C2=O)S(=O)(=O)C=CN1` [Compound 20, 4H-Pyrido[2,3-g][1,4]benzothiazine-5,10-dione-1,1-dioxo-7-carboxylic acid], the figure is 0.09 µM; as for `COC(O)c1ccc2c(n1)C(=O)C1=C(C2=O)S(=O)(=O)CCN1` (stereo not drawn) [Compound 19], 13 µM. For the compound `O=C1C2=C(NCCS2(=O)=O)C(=O)c2ncccc21` [Compound 11, 2H-Pyrido[2,3-g][1,4]benzothiazine-5,10-dione, 3,4-dihydro-1,1-dioxide], the IC50 in data set [1] came to 30 µM. The figures for the inhibition in vivo at 25.6 µmol/kg in data set [2] (setting [5]) and in data set [2] (setting [6]) were 30% and 20%, respectively. The like results for `Cc1ccc2c(n1)C(=O)C1=C(C2=O)S(=O)(=O)CCN1` [Compound 9, 2H-Pyrido[2,3-g][1,4]benzothiazine-5,10-dione, 3,4-dihydro-7-methyl-1,1-dioxide] were, in that order, greater than 90 µM, 50% and 80%.

Turning to `CC(C)=CCCc1ccc2c(c1)C(=O)C1=C(NCCS1(=O)=O)C2=O` [(A)], the “cytotoxic to rat glioma cells” value in data set [3] is “cytotoxic”. For the compound `CN(C)C(=O)c1ccc2c(n1)C(=O)C1=C(C2=O)S(=O)(=O)CCN1` [Compound 12, 2H-Pyrido[2,3-g][1,4]benzothiazine-5,10-dione, 3,4-dihydro-N,N-dimethyl-1,1-dioxo-7-carboxamide], the IC50 in data set [1] was determined as 79 µM. Besides, the figures for the inhibition in vivo at 25.6 µmol/kg in data set [2] (setting [5]) and in data set [2] (setting [6]) were 65% and 85%, respectively. Take `N#Cc1ccc2c(O)c3c(c(O)c2n1)NCCS3(=O)=O` [Compound 6, 2H-Pyrido[2,3-g][1,4]benzothiazine-5,10-dihydroxy, 3,4-dihydro-1,1-dioxo-7-carbonitrile]: in data set [1], the IC50 was 4.85 µM.

For the compound `CC(C)=CCCc1ccc2c(c1)C(=O)C1=C(C2=O)S(=O)(=O)CCN1` [(B)], the “cytotoxic to rat glioma cells” value in data set [3] is given as “cytotoxic”. In the case of `CN(C)C(=O)c1ccc2c(n1)C(=O)C1=C(NCCS1(=O)=O)C2=O` [Compound 13, 1H-Pyrido[3,2-g][1,4]benzothiazine-5,10-dione, 2,3-dihydro-N,N-dimethyl-1,1-dioxo-7-carboxamide], the IC50 in data set [1] amounted to 149 µM. In the case of `N#Cc1ccc2c(n1)C(=O)C1=C(C2=O)S(=O)(=O)CCN1` [Compound 5, 2H-Pyrido[2,3-g][1,4]benzothiazine-5,10-dione, 3,4-dihydro-1,1-dioxo-7-carbonitrile], the IC50 in data set [1] amounted to 1.57 µM. The values for the inhibition in vivo at 25.6 µmol/kg in data set [2] (setting [5]) and in data set [2] (setting [6]) were 25% and 50%, respectively. The matching figures for `Cc1ccc2c(n1)C(=O)C1=C(NCCS1(=O)=O)C2=O` [Compound 10, 1H-Pyrido[3,2-g][1,4]benzothiazine-5,10-dione, 2,3-dihydro-7-methyl-1,1-dioxide]: greater than 90 µM, 30% and 40%. As for `O=Cc1ccc2c(n1)C(=O)C1=C(C2=O)S(=O)(=O)CCN1` [Compound 18, 2H-Pyrido[2,3-g][1,4]benzothiazine-5,10-dione, 3,4-dihydro1,1-dioxo-7-carbaldehyde], in data set [1], the IC50 was determined as 4.17 µM. Moreover, the inhibition in vivo at 25.6 µmol/kg in data set [2] (setting [6]) is 40%. For `Cc1ccc2c(n1)C(=O)C1=C(C2=O)S(=O)(=O)C=CN1` [Compound 21, 4H-Pyrido[2,3-g][1,4]benzothiazine-5,10-dione-7-methyl-1,1-dioxide], the IC50 in data set [1] worked out at 8.93 µM. In addition, the inhibition in vivo at 25.6 µmol/kg in data set [2] (setting [5]) is 30%; in data set [2] (setting [6]) it was 40%. As to `O=C(/C=C/c1ccc2c(n1)C(=O)C1=C(C2=O)S(=O)(=O)CCN1)c1ccccc1` [Compound 16, (E)-1-phenyl-3-(2H-Pyrido[2,3-g][1,4]benzothiazine-5,10-dione, 3,4-dihydro-1,1-dioxide)prop-2-en-1-one.], the IC50 in data set [1] turned out to be 7.76 µM. The inhibition in vivo at 25.6 µmol/kg in data set [2] (setting [5]) was determined as 30%; in data set [2] (setting [6]), 65%. For the compound `O=C1C2=C(NCCS2(=O)=O)C(=O)c2nc(C3OCCO3)ccc21` [Compound 17], the IC50 in data set [1] was greater than 74 µM.

Turning to `O=C1C2=C(C(=O)c3ccccc31)S(=O)(=O)CCN2` [Compound 22, 2H-Naphtho[2,3-b]-1,4-thiazine-5,10-dione, 3,4-dihydro-1,1-dioxide], the IC50 in data set [1] was greater than 106 µM. Besides, the inhibition in vivo at 25.6 µmol/kg worked out at 25% in data set [2] (setting [5]) and 80% in data set [2] (setting [6]). In addition, the “cytotoxic to lymphocytic leukemia cells” value in data set [4] is given as “cytotoxic”. For the compound `O=C(O)c1ccc2c(n1)C(=O)C1=C(NC=CS1(=O)=O)C2=O` [Compound 2], in data set [1], the IC50 stood at 0.07 µM.

On to `COC(=O)c1ccc2c(n1)C(=O)C1=C(C2=O)S(=O)(=O)CCN1` [Compound 3, Methyl-2H-pyrido[2,3-g][1,4]benzothiazine-5,10-dione, 3,4-dihydro-1,1-dioxo-7-carboxylate], for which, in data set [1], the IC50 is 1.12 µM. Besides, in data set [2] (setting [6]), the inhibition in vivo at 25.6 µmol/kg was determined as 80%.
